For 103 compounds, logP and solubility results are on record in the OPERA property sets (Mansouri et al. 2018).

In brackets after ≈: the same amount, converted by molar mass.

Settings in one data set: not given
Turning to `Clc1ccc(Oc2c(Cl)cccc2Cl)cc1`, the logP was determined as 5.3.

As to `Clc1ccc(Oc2ccccc2)cc1`, the logP was 4.7.

Consider `Clc1cc(Cl)c(Oc2ccc(Cl)c(Cl)c2)c(Cl)c1`, for which the logP is 6.44.

The compound `Clc1ccc(Oc2cc(Cl)c(Cl)cc2Cl)c(Cl)c1` displayed a logP of 6.38.

The compound `Clc1ccc(Oc2c(Cl)cc(Cl)c(Cl)c2Cl)cc1` showed a logP of 6.47.

`Clc1cc(Oc2c(Cl)c(Cl)c(Cl)c(Cl)c2Cl)c(Cl)c(Cl)c1Cl` had a logP of 8.07.

As for `Clc1ccc(Oc2ccc(Cl)c(Cl)c2)cc1Cl`, the logP stood at 6.36.

Compound `Clc1ccc(Oc2ccccc2Cl)c(Cl)c1` had a log partition coefficient (logP) of 4.96.

Regarding `Clc1cccc(Oc2ccc(Cl)c(Cl)c2)c1`, the logP turned out to be 5.74.

`Clc1ccc(Oc2c(Cl)cccc2Cl)cc1Cl`: the logP came to 5.7. This logP and that of the compound before are within 0.2 log units of each other.

For the compound `Clc1ccc(Oc2ccccc2)c(Cl)c1Cl`, the log partition coefficient (logP) is 5.55.

Compound `Clc1ccc(Oc2c(Cl)ccc(Cl)c2Cl)c(Cl)c1` returned a logP of 6.06.

Compound `Clc1ccc(Oc2cc(Cl)c(Cl)c(Cl)c2)cc1Cl` gave a logP of 6.83.

Compound `Clc1ccc(Cl)c(Oc2ccc(Cl)c(Cl)c2Cl)c1` came in with a logP of 6.51.

Consider `Clc1ccc(Oc2ccc(Cl)c(Cl)c2Cl)cc1Cl`, for which the logP is 6.51.

For `Clc1cccc(Cl)c1Oc1ccccc1`, the lipophilicity (logP) worked out at 4.64.

With `Clc1cc(Cl)c(Cl)c(Oc2cc(Cl)c(Cl)c(Cl)c2)c1`, the lipophilicity (logP) came out at 7.01.

Compound `Clc1ccc(Oc2ccc(Cl)cc2Cl)c(Cl)c1` returned a log partition coefficient (logP) of 5.95.

`Clc1ccc(Oc2c(Cl)c(Cl)cc(Cl)c2Cl)cc1` yielded a lipophilicity (logP) of 6.41.

`Clc1cc(Cl)c(Oc2ccccc2)c(Cl)c1Cl` displayed a logP of 5.88.

Turning to `Clc1cc(Oc2c(Cl)c(Cl)cc(Cl)c2Cl)c(Cl)c(Cl)c1Cl`, the logP was determined as 7.63.

For the compound `Clc1ccc(Oc2ccc(Cl)c(Cl)c2Cl)c(Cl)c1Cl`, the logP came to 6.82.

As for `Clc1cc(Oc2ccccc2)cc(Cl)c1Cl`, the logP amounted to 5.7.

In the case of `Clc1ccc(Oc2cc(Cl)c(Cl)c(Cl)c2)c(Cl)c1`, the logP stood at 6.63.

Consider `Clc1ccccc1Oc1ccc(Cl)c(Cl)c1Cl`, for which the logP is 5.72.

As to `Clc1ccccc1Oc1ccccc1`, the logP turned out to be 4.45.

In the case of `Clc1cc(Oc2ccc(Cl)c(Cl)c2Cl)cc(Cl)c1Cl`, the logP came out at 6.99.

The compound `Clc1cc(Cl)c(Cl)c(Oc2ccccc2)c1Cl` yielded a logP of 5.82.

In turn, `Clc1cc(Cl)cc(Oc2ccc(Cl)c(Cl)c2)c1` registered a logP of 6.22.

`Clc1cc(Cl)cc(Oc2ccc(Cl)cc2Cl)c1`: the logP is 6.13.

The compound `Clc1ccc(Oc2c(Cl)cc(Cl)c(Cl)c2Cl)c(Cl)c1` showed a logP of 6.84.

Regarding `Clc1ccc(Oc2c(Cl)c(Cl)c(Cl)c(Cl)c2Cl)cc1`, the logP worked out at 6.95.

For the compound `Clc1ccc(Oc2cccc(Cl)c2Cl)c(Cl)c1`, the logP is 5.88.

Consider `Clc1ccc(Oc2ccccc2Cl)cc1Cl`, for which the logP amounted to 5.5.

Compound `Clc1cc(Cl)c(Oc2ccc(Cl)c(Cl)c2Cl)cc1Cl` had a logP of 7.01.

Compound `Clc1ccc(Oc2c(Cl)c(Cl)c(Cl)c(Cl)c2Cl)cc1Cl` gave a logP of 7.31.

`Clc1ccc(Oc2ccccc2)cc1Cl` came in with a lipophilicity (logP) of 4.99.

For `Clc1cc(Cl)cc(Oc2cc(Cl)c(Cl)cc2Cl)c1`, the logP worked out at 6.66.

In the case of `Clc1ccc(Oc2c(Cl)c(Cl)cc(Cl)c2Cl)cc1Cl`, the logP was 6.78.

`Clc1ccc(Oc2c(Cl)ccc(Cl)c2Cl)c(Cl)c1Cl`: the logP came to 6.47.

Compound `Clc1ccc(Cl)c(Oc2ccc(Cl)c(Cl)c2)c1` had a logP of 6.11.

Consider `Clc1cccc(Oc2ccc(Cl)c(Cl)c2Cl)c1`, for which the logP is 6.07.

As for `Clc1ccc(Oc2cccc(Cl)c2)cc1`, the logP is 5.13.

In turn, `Clc1cc(Cl)c(Oc2ccccc2Cl)cc1Cl` registered a logP of 5.97.

For `Clc1ccc(Oc2cc(Cl)c(Cl)cc2Cl)cc1`, the logP worked out at 5.99.

`Clc1cccc(Oc2ccccc2)c1Cl` yielded a logP of 5.

In turn, `Clc1cc(Cl)c(Oc2cc(Cl)c(Cl)cc2Cl)c(Cl)c1` had a logP of 6.49.

Regarding `Clc1ccc(Oc2cc(Cl)cc(Cl)c2Cl)cc1`, the logP came to 6.01.

The compound `Clc1cc(Cl)c(Oc2cc(Cl)c(Cl)cc2Cl)cc1Cl` yielded a lipophilicity (logP) of 6.72.

`Clc1cc(Cl)c(Cl)c(Oc2ccc(Cl)c(Cl)c2)c1` showed a logP of 6.52.

`Clc1ccc(Oc2c(Cl)cc(Cl)cc2Cl)c(Cl)c1`: the lipophilicity (logP) stood at 6.11.

Compound `Clc1cc(Cl)cc(Oc2ccc(Cl)c(Cl)c2Cl)c1` had a logP of 6.58.

`Clc1ccc(Oc2ccc(Cl)c(Cl)c2Cl)cc1` registered a logP of 6.14.

`Clc1ccc(Oc2c(Cl)c(Cl)cc(Cl)c2Cl)c(Cl)c1Cl`: the logP amounted to 7.14.

Regarding `Clc1ccc(Oc2cccc(Cl)c2Cl)cc1`, the logP turned out to be 5.63.

In the case of `Clc1ccc(Oc2c(Cl)ccc(Cl)c2Cl)cc1Cl`, the log partition coefficient (logP) amounted to 6.31.

In turn, `Clc1cccc(Oc2ccccc2)c1` showed a log partition coefficient (logP) of 4.75.

`Clc1ccc(Cl)c(Oc2ccccc2)c1` came in with a logP of 5.13.

For `Clc1ccc(Oc2cccc(Cl)c2Cl)cc1Cl`, the logP is 5.99.

In the case of `Clc1ccc(Oc2c(Cl)c(Cl)c(Cl)c(Cl)c2Cl)c(Cl)c1Cl`, the logP is 7.84.

With `Clc1ccc(Oc2ccc(Cl)c(Cl)c2)c(Cl)c1`, the logP came to 6.13.

In turn, `Clc1ccc(Cl)c(Oc2cc(Cl)c(Cl)cc2Cl)c1` displayed a logP of 6.22.

As for `Clc1cc(Oc2c(Cl)ccc(Cl)c2Cl)c(Cl)c(Cl)c1Cl`, the log partition coefficient (logP) is 6.98.

Compound `Clc1cc(Cl)c(Oc2cc(Cl)c(Cl)c(Cl)c2)cc1Cl` had a log partition coefficient (logP) of 7.11.

Compound `Clc1cc(Cl)cc(Oc2ccccc2)c1` had a logP of 5.21.

Compound `Clc1cc(Cl)c(Oc2ccccc2)c(Cl)c1` gave a logP of 5.32. This logP and that of the compound before are within 0.2 log units of each other.

In turn, `Clc1ccc(Oc2ccc(Cl)c(Cl)c2Cl)c(Cl)c1` registered a logP of 6.28.

Regarding `Clc1ccc(Oc2cc(Cl)cc(Cl)c2Cl)c(Cl)c1`, the logP is 6.54.

Compound `Clc1ccc(Oc2cc(Cl)cc(Cl)c2)cc1` showed a logP of 5.77.

For the compound `Clc1c(Cl)c(Cl)c(Oc2ccccc2)c(Cl)c1Cl`, the logP is 6.37.

The compound `Clc1ccc(Oc2cc(Cl)ccc2Cl)cc1` returned a logP of 5.66.

For the compound `Clc1cc(Cl)c(Oc2c(Cl)c(Cl)c(Cl)c(Cl)c2Cl)cc1Cl`, the logP was 7.81.

For the compound `Clc1cccc(Oc2ccc(Cl)cc2Cl)c1`, the logP came to 5.65.

In turn, `Clc1c(Cl)c(Cl)c(Oc2c(Cl)c(Cl)c(Cl)c(Cl)c2Cl)c(Cl)c1Cl` showed a logP of 8.16.

Compound `Clc1cc(Cl)c(Cl)c(Oc2ccccc2)c1` had a logP of 5.62.

In turn, `Clc1ccc(Oc2cc(Cl)ccc2Cl)c(Cl)c1` came in with a logP of 5.78.

As for `Clc1ccc(Oc2ccccc2Cl)cc1`, the logP came to 5.03.

`Clc1ccc(Oc2c(Cl)cccc2Cl)c(Cl)c1Cl` showed a logP of 6.11.

As for `Clc1ccc(Oc2cc(Cl)c(Cl)c(Cl)c2Cl)cc1`, the logP worked out at 6.61.

On to `Clc1cc(Cl)c(Oc2cc(Cl)c(Cl)c(Cl)c2Cl)cc1Cl`, for which the logP came to 7.46.

Compound `Clc1cccc(Oc2ccc(Cl)c(Cl)c2Cl)c1Cl` showed a logP of 6.3.

`Clc1cc(Cl)c(Oc2c(Cl)c(Cl)cc(Cl)c2Cl)cc1Cl` yielded a logP of 7.13.

Turning to `Clc1ccc(Oc2cc(Cl)c(Cl)c(Cl)c2Cl)cc1Cl`, the lipophilicity (logP) was 7.07.

The compound `Clc1ccc(Oc2ccccc2)c(Cl)c1` displayed a logP of 4.93.

As for `Clc1ccc(Cl)c(Oc2ccccc2)c1Cl`, the lipophilicity (logP) was found to be 5.35.

On to `Clc1ccc(Oc2c(Cl)ccc(Cl)c2Cl)cc1`, for which the logP amounted to 5.64.

The compound `Clc1ccc(Oc2ccc(Cl)cc2)cc1` gave a logP of 5.25.

The compound `Clc1cc(Cl)c(Cl)c(Oc2cc(Cl)c(Cl)cc2Cl)c1` gave a logP of 6.65.

`Clc1cc(Cl)c(Oc2c(Cl)ccc(Cl)c2Cl)cc1Cl` gave a log partition coefficient (logP) of 6.47.

In turn, `Clc1ccc(Oc2cc(Cl)c(Cl)c(Cl)c2)cc1` yielded a log partition coefficient (logP) of 6.3.

As for `Clc1cc(Oc2cc(Cl)c(Cl)c(Cl)c2Cl)cc(Cl)c1Cl`, the log partition coefficient (logP) was determined as 7.55.

`Clc1ccc(Oc2cc(Cl)c(Cl)c(Cl)c2Cl)c(Cl)c1Cl` registered a logP of 7.28.

The compound `Clc1ccc(Oc2ccc(Cl)c(Cl)c2)cc1` showed a logP of 5.88.

`Clc1cccc(Oc2cc(Cl)c(Cl)cc2Cl)c1` yielded a logP of 6.14.

`Clc1cc(Oc2c(Cl)ccc(Cl)c2Cl)cc(Cl)c1Cl` showed a logP of 6.65.

`Clc1ccc(Oc2c(Cl)c(Cl)c(Cl)c(Cl)c2Cl)c(Cl)c1` yielded a logP of 7.31.

As to `Clc1ccc(Oc2cc(Cl)c(Cl)cc2Cl)cc1Cl`, the logP is 6.6.

In turn, `Clc1cc(Oc2cc(Cl)c(Cl)c(Cl)c2Cl)c(Cl)c(Cl)c1Cl` gave a logP of 7.78.

The compound `Clc1ccc(Oc2cc(Cl)c(Cl)c(Cl)c2Cl)c(Cl)c1` yielded a logP of 6.72.

`Clc1ccc(Oc2c(Cl)cc(Cl)cc2Cl)cc1` gave a logP of 5.92.

With `Clc1ccc(Oc2ccc(Cl)cc2Cl)cc1`, the logP turned out to be 5.53.

`Clc1cc(Cl)c(Oc2cccc(Cl)c2Cl)cc1Cl` returned a logP of 6.22.

In the case of `Clc1cc(Cl)c(Oc2c(Cl)cccc2Cl)cc1Cl`, the logP came out at 5.98.

The data set is the same for the next values; noted with them: 25 °C.
`Clc1ccc(Oc2c(Cl)cccc2Cl)cc1` yielded a solubility of 1.23 µM (≈ 0.337 µg/mL).

For `Clc1ccc(Oc2ccccc2Cl)c(Cl)c1`, the solubility was found to be 11.2 µM (≈ 3.07 µg/mL).

Take `Clc1cccc(Oc2ccc(Cl)c(Cl)c2)c1`: the solubility is 3.66 µM (≈ 1 µg/mL).

`Clc1cccc(Cl)c1Oc1ccccc1` showed a solubility of 8.7 µM (≈ 2.08 µg/mL).

Regarding `Clc1ccccc1Oc1ccccc1`, the solubility worked out at 16.6 µM (≈ 3.4 µg/mL).

In the case of `Clc1ccc(Oc2ccccc2Cl)cc1Cl`, the solubility was determined as 6.32 µM (≈ 1.73 µg/mL).

`Clc1ccc(Oc2ccccc2)cc1Cl` registered a solubility of 19 µM (≈ 4.55 µg/mL).

As to `Clc1ccc(Oc2cccc(Cl)c2)cc1`, the solubility came out at 17 µM (≈ 4.06 µg/mL).

As to `Clc1ccc(Oc2cccc(Cl)c2Cl)cc1`, the solubility worked out at 4.9 µM (≈ 1.34 µg/mL).

Compound `Clc1cccc(Oc2ccccc2)c1` showed a solubility of 61.6 µM (≈ 12.6 µg/mL). This solubility is about 13-fold higher than that of the compound before.

`Clc1ccc(Cl)c(Oc2ccccc2)c1` yielded a solubility of 10.7 µM (≈ 2.56 µg/mL).

`Clc1cc(Cl)cc(Oc2ccccc2)c1`: the solubility was determined as 8.7 µM (≈ 2.08 µg/mL).

In turn, `Clc1ccc(Oc2cc(Cl)cc(Cl)c2)cc1` returned a solubility of 3.02 µM (≈ 0.826 µg/mL).

In turn, `Clc1ccc(Oc2cc(Cl)ccc2Cl)cc1` showed a solubility of 3.63 µM (≈ 0.993 µg/mL).

`Clc1cccc(Oc2ccc(Cl)cc2Cl)c1` returned a solubility of 3.62 µM (≈ 0.99 µg/mL). This solubility and that of the compound before are within 1.5-fold of each other.

Turning to `Clc1cc(Cl)c(Cl)c(Oc2ccccc2)c1`, the solubility turned out to be 6.47 µM (≈ 1.77 µg/mL). Against the preceding compound, the solubility is about 1.8-fold higher.

With `Clc1ccc(Oc2ccccc2Cl)cc1`, the solubility amounted to 3.02 µM (≈ 0.722 µg/mL).

As to `Clc1ccc(Oc2ccccc2)c(Cl)c1`, the solubility amounted to 23.4 µM (≈ 5.6 µg/mL).

On to `Clc1ccc(Oc2ccc(Cl)c(Cl)c2)cc1`, for which the solubility amounted to 2.19 µM (≈ 0.598 µg/mL).

With `Clc1ccc(Oc2ccc(Cl)cc2Cl)cc1`, the solubility was 0.603 µM (≈ 0.165 µg/mL). Against the preceding compound, the solubility is about 3.6-fold lower.
